Test results taken from patent US20240383901A1, “SUBSTITUTED PYRROLO[2,3-D]PYRIMIDINES, THEIR PREPARATION AND THEIR THERAPEUTIC APPLICATION” (SANOFI, priority 2021, published 2024).

Experiments:
Assay type in all cases: biochemical
LRRK2 = LRRK2 (Homo sapiens, UniProt Q5S007); assay: LRRK2 WT assay (Assay B, radiometric 33P-ATP filter binding); settings: Assay B (values marked *)
Protocol: LRRK2(human) is incubated with 50 mM HEPES pH 8.0, 0.2 mM EDTA, 0.01% Brij-35, 1% (w/v) BSA, 5 mM DTT, 250 Mm […], 10 mM Magnesium acetate and [[…]]-ATP (specific activity and concentration as required).
The reaction is initiated by the addition of the Mg/ATP mix.

full-length LRRK2 G2019S = molecular target: T1, full-length LRRK2 G2019S (Homo sapiens, UniProt Q5S007, G2019S); assay: LRRK2-G2019S kinase activity assay (Lanthascreen TR-FRET); settings: 1.1 mM ATP
T1 construct: DYKDDDDK (FLAG)
T1 sequence (Q5S007 whole entry G2019S): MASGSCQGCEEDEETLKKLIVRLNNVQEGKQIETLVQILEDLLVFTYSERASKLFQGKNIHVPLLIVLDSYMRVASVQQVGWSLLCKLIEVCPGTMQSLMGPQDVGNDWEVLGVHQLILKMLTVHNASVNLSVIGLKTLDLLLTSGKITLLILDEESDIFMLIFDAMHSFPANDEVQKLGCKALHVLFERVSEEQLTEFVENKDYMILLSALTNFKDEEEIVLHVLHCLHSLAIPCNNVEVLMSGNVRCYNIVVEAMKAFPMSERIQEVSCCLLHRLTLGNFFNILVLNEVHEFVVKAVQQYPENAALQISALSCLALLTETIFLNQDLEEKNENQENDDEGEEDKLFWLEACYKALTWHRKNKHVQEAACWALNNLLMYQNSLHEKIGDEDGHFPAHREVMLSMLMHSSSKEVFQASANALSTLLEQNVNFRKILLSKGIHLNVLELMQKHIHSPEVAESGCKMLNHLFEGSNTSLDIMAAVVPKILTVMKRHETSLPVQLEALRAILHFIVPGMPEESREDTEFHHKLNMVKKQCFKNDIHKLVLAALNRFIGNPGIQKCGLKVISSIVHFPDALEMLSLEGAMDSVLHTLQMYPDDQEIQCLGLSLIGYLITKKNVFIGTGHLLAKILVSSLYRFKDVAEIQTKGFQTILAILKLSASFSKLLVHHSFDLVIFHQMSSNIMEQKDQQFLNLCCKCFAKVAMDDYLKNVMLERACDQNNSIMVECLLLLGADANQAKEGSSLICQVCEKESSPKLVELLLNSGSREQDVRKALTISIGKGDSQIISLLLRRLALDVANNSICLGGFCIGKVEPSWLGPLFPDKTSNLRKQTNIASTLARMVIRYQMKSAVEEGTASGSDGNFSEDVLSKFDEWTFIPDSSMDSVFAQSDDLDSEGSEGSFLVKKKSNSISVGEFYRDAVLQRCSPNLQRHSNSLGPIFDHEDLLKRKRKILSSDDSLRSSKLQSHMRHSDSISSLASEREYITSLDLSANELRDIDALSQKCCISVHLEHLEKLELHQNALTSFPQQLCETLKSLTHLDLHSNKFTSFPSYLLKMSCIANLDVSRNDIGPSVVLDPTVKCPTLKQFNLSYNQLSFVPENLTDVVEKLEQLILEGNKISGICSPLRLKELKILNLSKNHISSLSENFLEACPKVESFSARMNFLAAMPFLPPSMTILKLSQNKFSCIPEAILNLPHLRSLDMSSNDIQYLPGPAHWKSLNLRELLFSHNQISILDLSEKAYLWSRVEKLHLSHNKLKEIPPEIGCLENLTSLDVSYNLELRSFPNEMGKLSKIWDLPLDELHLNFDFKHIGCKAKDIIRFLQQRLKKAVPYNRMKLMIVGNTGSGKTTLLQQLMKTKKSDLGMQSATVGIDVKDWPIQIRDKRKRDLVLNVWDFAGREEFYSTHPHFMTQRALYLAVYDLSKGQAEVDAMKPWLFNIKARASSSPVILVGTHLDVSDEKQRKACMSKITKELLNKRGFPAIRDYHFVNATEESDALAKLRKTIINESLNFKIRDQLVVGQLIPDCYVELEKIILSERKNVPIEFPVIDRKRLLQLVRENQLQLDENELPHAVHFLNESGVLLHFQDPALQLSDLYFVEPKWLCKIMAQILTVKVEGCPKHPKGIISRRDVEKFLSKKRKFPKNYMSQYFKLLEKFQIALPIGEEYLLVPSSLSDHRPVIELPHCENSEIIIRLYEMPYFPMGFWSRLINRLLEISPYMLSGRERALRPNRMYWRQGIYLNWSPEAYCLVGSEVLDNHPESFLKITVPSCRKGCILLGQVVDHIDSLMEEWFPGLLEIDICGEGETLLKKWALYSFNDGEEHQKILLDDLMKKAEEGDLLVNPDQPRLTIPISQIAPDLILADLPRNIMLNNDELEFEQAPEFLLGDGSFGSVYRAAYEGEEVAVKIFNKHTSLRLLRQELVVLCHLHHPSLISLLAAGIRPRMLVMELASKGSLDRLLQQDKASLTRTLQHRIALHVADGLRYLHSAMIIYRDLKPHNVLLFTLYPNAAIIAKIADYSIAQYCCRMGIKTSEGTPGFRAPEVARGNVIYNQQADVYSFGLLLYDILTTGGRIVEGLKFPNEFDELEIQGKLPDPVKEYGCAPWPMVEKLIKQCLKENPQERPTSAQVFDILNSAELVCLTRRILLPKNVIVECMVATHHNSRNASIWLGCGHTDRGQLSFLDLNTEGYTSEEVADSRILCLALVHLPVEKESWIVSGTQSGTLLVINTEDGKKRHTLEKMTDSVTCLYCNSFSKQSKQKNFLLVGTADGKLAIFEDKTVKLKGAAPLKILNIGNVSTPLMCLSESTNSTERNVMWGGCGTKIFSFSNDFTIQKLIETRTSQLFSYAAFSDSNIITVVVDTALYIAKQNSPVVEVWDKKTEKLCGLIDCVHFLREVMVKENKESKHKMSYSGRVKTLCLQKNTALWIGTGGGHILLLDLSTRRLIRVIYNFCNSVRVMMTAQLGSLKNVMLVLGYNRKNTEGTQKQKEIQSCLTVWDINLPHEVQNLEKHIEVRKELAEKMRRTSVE

[1] = molecular target: T2, full-length LRRK2 wild type (Homo sapiens, UniProt Q5S007); assay: LRRK2 WT assay (Assay A, Lanthascreen TR-FRET, 500 uM ATP); settings: Assay A (values without *)
T2 construct: DYDDDDK tagged full-length LRRK2 wild type is used
T2 sequence (Q5S007 whole entry): as the sequence (Q5S007 whole entry G2019S) above, with S2019G counted along it

Chain of LRRK2 (Q5S007 whole entry): as the sequence (Q5S007 whole entry G2019S) above, with S2019G counted along it

Row | Compound | IC50 (LRRK2) [µM] | IC50 (full-length LRRK2 G2019S) [µM] | IC50 [1] [µM]
1 | CC[C@H]1COC[C@H]1n1c(C#N)cc2cnc(Nc3cn(C)nc3OC(C)C)nc21 (racemic) [Example 72, 7-((cis)-4-ethyltetrahydrofuran-3-yl)-2-((3-isopropoxy-1-methyl-1 H-pyrazol-4-yl)amino)-7H-pyrrolo[2,3-d]pyrimidine-6-carbonitrile] | 0.083 |  | 
2 | CC[C@@H]1COC[C@H]1n1c(C#N)cc2cnc(Nc3cn(C)nc3OC(C)C)nc21 (racemic) [Example 73, 7-((trans)-4-ethyltetrahydrofuran-3-yl)-2-((3-isopropoxy-1-methyl-1 H-pyrazol-4-yl)amino)-7H-pyrrolo[2,3-d]pyrimidine-6-carbonitrile] | 0.011 |  | 
3 | CC(C)Oc1nn(C(C)C#N)cc1Nc1ncc2cc(C#N)n([C@@H]3COC[C@@H]3C)c2n1 (single isomer, unassigned) [Example 48, 2-((1-(1-cyanoethyl)-3-isopropoxy-1 H-pyrazol-4-yl)amino)-7-((cis)-4-methyltetrahydrofuran-3-yl)-7H-pyrrolo[2,3-d]pyrimidine-6-carbonitrile] | 0.256 |  | 
4 | CC(C)Oc1nn(C(C)C#N)cc1Nc1ncc2cc(C#N)n([C@@H]3COC[C@@H]3C)c2n1 (single isomer, unassigned) [Example 49, 2-((1-(1-cyanoethyl)-3-isopropoxy-1 H-pyrazol-4-yl)amino)-7-((cis)-4-methyltetrahydrofuran-3-yl)-7H-pyrrolo[2,3-d]pyrimidine-6-carbonitrile] | 0.274 |  | 
5 | CC(C)Oc1nn(C(C)C#N)cc1Nc1ncc2cc(C#N)n([C@@H]3COC[C@@H]3C)c2n1 (single isomer, unassigned) [Example 50, 2-((1-(1-cyanoethyl)-3-isopropoxy-1 H-pyrazol-4-yl)amino)-7-((cis)-4-methyltetrahydrofuran-3-yl)-7H-pyrrolo[2,3-d]pyrimidine-6-carbonitrile] | 0.007 |  | 
6 | CC(C)Oc1nn(C(C)C#N)cc1Nc1ncc2cc(C#N)n([C@@H]3COC[C@@H]3C)c2n1 (single isomer, unassigned) [Example 51, 2-((1-(1-cyanoethyl)-3-isopropoxy-1 H-pyrazol-4-yl)amino)-7-((cis)-4-methyltetrahydrofuran-3-yl)-7H-pyrrolo[2,3-d]pyrimidine-6-carbonitrile] | 0.005 |  | 
7 | C[C@H]1COC[C@@H]1n1c(C#N)cc2cnc(Nc3ccc(CN(C)C)cc3OC3CC3)nc21 [Example 41, 2-((2-Cyclopropoxy-4-((dimethylamino)methyl)phenyl)amino)-7-((3R,4R)-4-methyltetrahydrofuran-3-yl)-7H-pyrrolo[2,3-d]pyrimidine-6-carbonitrile] |  | 0.003 | 0.004
8 | [2H]C([2H])([2H])n1cc(Nc2ncc3cc(C#N)n([C@H]4COC[C@@H]4C)c3n2)c(OC(C)C)n1 [Example 42, 2-((3-Isopropoxy-1-(methyl-d3)-1H-pyrazol-4-yl)amino)-7-((3R,4R)-4-methyltetrahydrofuran-3-yl)-7H-pyrrolo[2,3-d]pyrimidine-6-carbonitrile] |  | 0.002 | 0.001
9 | C[C@@H]1COC[C@H]1n1c(C#N)cc2cnc(Nc3cn(C)nc3OC3COC3)nc21 [Example 44, 2-((1-Methyl-3-(oxetan-3-yloxy)-1 H-pyrazol-4-yl)amino)-7-((3S,4S)-4-methyltetrahydrofuran-3-yl)-7H-pyrrolo[2,3-d]pyrimidine-6-carbonitrile] |  | 0.191 | 0.196
10 | CO[C@H]1COC[C@H]1n1c(C#N)cc2cnc(Nc3ccc(C(C)(C)O)cc3OC3COC3)nc21 [Example 55, 2-((4-(2-Hydroxypropan-2-yl)-2-(oxetan-3-yloxy)phenyl)amino)-7-((3R,4R)-4-methoxytetrahydrofuran-3-yl)-7H-pyrrolo[2,3-d]pyrimidine-6-carbonitrile] |  | 0.018 | 0.041
11 | CC(C)Oc1nn(C(C)(C)C#N)cc1Nc1ncc2cc(C#N)n(C3COC3)c2n1 [Example 74, 2-((1-(2-Cyanopropan-2-yl)-3-isopropoxy-1H-pyrazol-4-yl)amino)-7-(oxetan-3-yl)-7H-pyrrolo[2,3-d]pyrimidine-6-carbonitrile] |  | 0.014 | 0.02
12 | [2H]C([2H])([2H])n1cc(Nc2ncc3cc(C#N)n([C@@H](C)COC)c3n2)c(OC2COC2)n1 [Example 91, 7-[(2S)-1-Methoxypropan-2-yl]-2-[[3-(oxetan-3-yloxy)-1-(methyl-d3)pyrazol-4-yl]amino]pyrrolo[2,3-d]pyrimidine-6-carbonitrile] |  | 0.007 | 0.013
13 | COC[C@H](C)n1c(C#N)cc2cnc(Nc3cn(COC)nc3OC3CC3)nc21 [Example 92, 2-[[3-(Cyclopropoxy)-1-(methoxymethyl)pyrazol-4-yl]amino]-7-[(1S)-2-methoxy-1-methyl-ethyl]pyrrolo[2,3-d]pyrimidine-6-carbonitrile] |  | 0.004 | 0.006
14 | COC[C@H](C)n1c(C#N)cc2cnc(Nc3cn(CS(C)(=O)=O)nc3OC3COC3)nc21 [Example 93, 7-[(1S)-2-Methoxy-1-methyl-ethyl]-2-[[1-(methylsulfonylmethyl)-3-(oxetan-3-yloxy)pyrazol-4-yl]amino]pyrrolo[2,3-d]pyrimidine-6-carbonitrile] |  | 0.004 | 0.008
15 | COCCn1cc(Nc2ncc3cc(C#N)n([C@@H](C)COC)c3n2)c(OC2CC2)n1 [Example 103, (S)-2-((3-cyclopropoxy-1-(2-methoxyethyl)-1H-pyrazol-4-yl)amino)-7-(1-methoxypropan-2-yl)-7H-pyrrolo[2,3-d]pyrimidine-6-carbonitrile] |  | 0.031 | 0.035
16 | COCC(C)n1c(C#N)cc2cnc(Nc3cn(C4CCC(C)(O)CC4)nc3OC(C)C)nc21 [Example 104, cis-2-((1-(4-hydroxy-4-methylcyclohexyl)-3-isopropoxy-1H-pyrazol-4-yl)amino)-7-((S)-1-methoxypropan-2-yl)-7H-pyrrolo[2,3-d]pyrimidine-6-carbonitrile] |  | 0.042 | 0.044
17 | COCC(C)n1c(C#N)cc2cnc(Nc3cn(C4CCC(C)(O)CC4)nc3OC(C)C)nc21 [Example 105, trans-2-((1-(4-hydroxy-4-methylcyclohexyl)-3-isopropoxy-1H-pyrazol-4-yl)amino)-7-((S)-1-methoxypropan-2-yl)-7H-pyrrolo[2,3-d]pyrimidine-6-carbonitrile] |  | 0.057 | 0.062
18 | COCC(C)n1c(C#N)cc2cnc(Nc3cn(C4CCC(C)(O)CC4)nc3OC3CC3)nc21 [Example 106, cis-2-((3-cyclopropoxy-1-(4-hydroxy-4-methylcyclohexyl)-1H-pyrazol-4-yl)amino)-7-((S)-1-methoxypropan-2-yl)-7H-pyrrolo[2,3-d]pyrimidine-6-carbonitrile] |  | 0.055 | 0.07
19 | COCC(C)n1c(C#N)cc2cnc(Nc3cn(C4CCC(C)(O)CC4)nc3OC3CC3)nc21 [Example 107, trans-2-((3-cyclopropoxy-1-(4-hydroxy-4-methylcyclohexyl)-1H-pyrazol-4-yl)amino)-7-((S)-1-methoxypropan-2-yl)-7H-pyrrolo[2,3-d]pyrimidine-6-carbonitrile] |  | 0.081 | 0.09
20 | [2H]C([2H])([2H])n1cc(Nc2ncc3cc(C#N)n([C@@H](C)COC)c3n2)c(OC2CC(O)C2(C)C)n1 (stereo partly drawn) [Example 108, 2-((3-(3-hydroxy-2,2-dimethylcyclobutoxy)-1-(methyl-d3)-1H-pyrazol-4-yl)amino)-7-((S)-1-methoxypropan-2-yl)-7H-pyrrolo[2,3-d]pyrimidine-6-carbonitrile] |  | 0.01 | 0.01
21 | COCCn1cc(Nc2ncc3cc(C#N)n([C@H]4COC[C@@H]4C)c3n2)c(OC2CC2)n1 [Example 113, 2-((3-Cyclopropoxy-1-(2-methoxyethyl)-1 H-pyrazol-4-yl)amino)-7-((3R,4R)-4-methyltetrahydrofuran-3-yl)-7H-pyrrolo[2,3-d]pyrimidine-6-carbonitrile] |  | 0.027 | 0.027
22 | COCCn1cc(Nc2ncc3cc(C#N)n(C4CCOCC4)c3n2)c(OC2CC2)n1 [Example 122, 2-((3-Cyclopropoxy-1-(2-methoxyethyl)-1 H-pyrazol-4-yl)amino)-7-(tetrahydro-2H-pyran-4-yl)-7H-pyrrolo[2,3-d]pyrimidine-6-carbonitrile] |  | 0.222 | 0.153
23 | COCC(C)n1cc(Nc2ncc3cc(C#N)n([C@H]4COC[C@@H]4C)c3n2)c(OC2COC2)n1 (stereo partly drawn) [Example 128, 2-((1-(1-Methoxypropan-2-yl)-3-(oxetan-3-yloxy)-1 H-pyrazol-4-yl)amino)-7-((3R,4R)-4-methyltetrahydrofuran-3-yl)-7H-pyrrolo[2,3-d]pyrimidine-6-carbonitrile] |  | 0.104 | 0.081
24 | COC[C@H](C)n1c(C#N)cc2cnc(Nc3cn(CCO)nc3OC3CCOCC3)nc21 [Example 138, (S)-2-((1-(2-hydroxyethyl)-3-((tetrahydro-2H-pyran-4-yl)oxy)-1 H-pyrazol-4-yl)amino)-7-(1-methoxypropan-2-yl)-7H-pyrrolo[2,3-d]pyrimidine-6-carbonitrile] |  | 0.011 | 0.011
25 | COC[C@H](C)n1c(C#N)cc2cnc(Nc3cn(CCO)nc3OC3COC3)nc21 [Example 139, (S)-2-((1-(2-hydroxyethyl)-3-(oxetan-3-yloxy)-1 H-pyrazol-4-yl)amino)-7-(1-methoxypropan-2-yl)-7H-pyrrolo[2,3-d]pyrimidine-6-carbonitrile] |  | 0.02 | 0.022
26 | COC[C@H](C)n1c(C#N)cc2cnc(Nc3ccc(C(C)(C)O)cc3OC3CC3)nc21 [Example 154, (S)-2-((2-cyclopropoxy-4-(2-hydroxypropan-2-yl)phenyl)amino)-7-(1-methoxypropan-2-yl)-7H-pyrrolo[2,3-d]pyrimidine-6-carbonitrile] |  | 0.001 | 0.002
